Laboratory results taken from publication PMC11182235 (Frontiers in Ophthalmology, 2023).
Entries after “also recorded” stand apart in the source; their conditions may differ. Like-named read-outs stand apart in the source and are kept apart here.

Legend:
adult porcine RGCs = settings: cited from earlier work
isolated rat RGCs = settings: cited from earlier work
[1] = system: isolated retinal ganglion cells; type: cell-based, porcine
[2] = system: isolated retinal ganglion cells; settings: cited from earlier work
RGC = settings: in vivo; cited from earlier work
α4β2 nicotinic receptors = settings: cited from earlier work
α7 nAChR = α7 nAChR (Sus scrofa, UniProt F1SNR6); assay: biochemical; type: binding, porcine
α4 nAChR = α4 nAChR (Sus scrofa, UniProt A0A286ZKF4+A0A287BFD8); type: binding, porcine; settings: for Ki: read-out: Mean Ki against [3H]-cytisine
retinal ganglion cells = type: cell-based, rat
α3 nAChR = α3 nAChR (Sus scrofa, UniProt A0A287A7Z4); type: binding, porcine; settings: read-out: Mean Ki against [3H]-epibatidine
α7 nicotinic receptors = settings: cited from earlier work
α7 nAChRs = settings: cited from earlier work
α3β4 receptors = settings: cited from earlier work
[3] = rat retinal slice, RGCs, fluo-4 fluorescence, n = 4

α4 nAChR, sequence (A0A286ZKF4 31-595 limits assumed): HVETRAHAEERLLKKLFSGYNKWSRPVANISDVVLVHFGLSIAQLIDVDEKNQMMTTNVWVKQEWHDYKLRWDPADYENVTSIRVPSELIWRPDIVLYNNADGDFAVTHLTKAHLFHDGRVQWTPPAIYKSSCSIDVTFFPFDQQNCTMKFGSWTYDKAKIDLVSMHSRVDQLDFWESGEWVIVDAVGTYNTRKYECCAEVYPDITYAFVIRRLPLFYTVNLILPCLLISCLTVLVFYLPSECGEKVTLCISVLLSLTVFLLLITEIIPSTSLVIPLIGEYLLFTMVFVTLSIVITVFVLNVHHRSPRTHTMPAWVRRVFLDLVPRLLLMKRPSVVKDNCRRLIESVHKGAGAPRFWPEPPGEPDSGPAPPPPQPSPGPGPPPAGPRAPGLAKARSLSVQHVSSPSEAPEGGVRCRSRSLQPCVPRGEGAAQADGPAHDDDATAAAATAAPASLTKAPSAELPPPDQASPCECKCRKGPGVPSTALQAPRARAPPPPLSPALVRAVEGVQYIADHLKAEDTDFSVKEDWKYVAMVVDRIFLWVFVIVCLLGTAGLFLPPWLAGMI
α4 nAChR, sequence (A0A287BFD8 26-502 limits assumed): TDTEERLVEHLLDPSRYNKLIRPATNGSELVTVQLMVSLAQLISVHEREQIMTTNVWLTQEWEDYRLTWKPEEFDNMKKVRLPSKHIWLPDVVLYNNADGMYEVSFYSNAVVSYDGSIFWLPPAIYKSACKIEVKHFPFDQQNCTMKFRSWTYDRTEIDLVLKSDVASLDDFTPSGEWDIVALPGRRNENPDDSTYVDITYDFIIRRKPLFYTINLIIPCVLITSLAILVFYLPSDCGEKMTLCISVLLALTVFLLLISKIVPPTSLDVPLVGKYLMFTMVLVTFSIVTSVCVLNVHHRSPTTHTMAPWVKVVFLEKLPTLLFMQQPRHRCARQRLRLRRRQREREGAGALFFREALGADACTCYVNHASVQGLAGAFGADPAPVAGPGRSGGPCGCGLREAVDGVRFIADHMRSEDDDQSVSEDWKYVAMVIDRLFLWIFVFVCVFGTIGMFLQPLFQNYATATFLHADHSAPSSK
α7 nAChR, sequence (F1SNR6 20-499 limits assumed): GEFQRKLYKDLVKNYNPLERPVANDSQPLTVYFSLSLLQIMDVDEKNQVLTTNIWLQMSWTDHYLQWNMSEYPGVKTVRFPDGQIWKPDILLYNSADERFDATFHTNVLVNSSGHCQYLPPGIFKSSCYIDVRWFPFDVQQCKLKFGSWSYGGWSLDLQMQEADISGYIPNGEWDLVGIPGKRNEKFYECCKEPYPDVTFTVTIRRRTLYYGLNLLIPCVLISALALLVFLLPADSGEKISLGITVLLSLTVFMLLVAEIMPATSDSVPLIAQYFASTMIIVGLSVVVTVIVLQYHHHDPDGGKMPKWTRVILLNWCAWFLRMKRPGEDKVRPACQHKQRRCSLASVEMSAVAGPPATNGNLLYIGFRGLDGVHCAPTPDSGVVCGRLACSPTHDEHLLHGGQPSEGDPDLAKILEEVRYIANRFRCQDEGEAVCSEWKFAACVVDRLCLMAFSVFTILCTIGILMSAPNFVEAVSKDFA
α3 nAChR, sequence (A0A287A7Z4 30-503 limits assumed): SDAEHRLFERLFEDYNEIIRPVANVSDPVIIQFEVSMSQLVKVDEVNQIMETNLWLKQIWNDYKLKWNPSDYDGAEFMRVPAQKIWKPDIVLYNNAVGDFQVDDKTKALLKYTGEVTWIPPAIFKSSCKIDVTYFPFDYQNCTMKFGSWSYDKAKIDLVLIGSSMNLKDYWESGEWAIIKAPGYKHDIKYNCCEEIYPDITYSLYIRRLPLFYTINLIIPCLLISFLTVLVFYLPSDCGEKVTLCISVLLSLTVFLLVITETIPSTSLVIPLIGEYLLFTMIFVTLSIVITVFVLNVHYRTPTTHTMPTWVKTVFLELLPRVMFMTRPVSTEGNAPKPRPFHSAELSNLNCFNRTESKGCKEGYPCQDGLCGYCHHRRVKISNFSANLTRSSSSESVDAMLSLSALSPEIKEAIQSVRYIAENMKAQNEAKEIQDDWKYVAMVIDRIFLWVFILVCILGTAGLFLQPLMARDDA

CC(=O)OCC[N+](C)(C)C [ACh, acetylcholine]
Reduction of glutamate-induced excitotoxicity (adult porcine RGCs): significantly reduced

CCN1C[C@]2(COC(=O)c3ccccc3N3C(=O)C[C@H](C)C3=O)CC[C@H](OC)[C@@]34[C@@H]5C[C@H]6[C@H](OC)[C@@H]5[C@](O)(C[C@@H]6OC)[C@@](O)([C@@H](OC)[C@H]23)[C@@H]14 [MLA, Methyllycaconitine]
Block of neuroprotective effect of 100 nM PNU-282987 against glutamate-induced toxicity (isolated rat RGCs): blocked; also recorded: inhibited the protective effects

O=C(N[C@H]1CN2CCC1CC2)c1ccc(Cl)cc1 [PNU-282987]
Neuroprotection against glutamate-induced excitotoxicity [1]: effective in the low-to-mid nanomolar concentration range
Cell numbers in isolated rat RGC culture relative to control (isolated rat RGCs): increased numbers of cells
Cell numbers in porcine retinal cell culture relative to control [2]: increased numbers of cells
RGC cell numbers in the intact rat (RGC): increase in RGC cell numbers

C[N+](C)(C)CCO [choline]
Reduction of glutamate-induced excitotoxicity (adult porcine RGCs): significantly reduced

Clc1ccc(C2CC3CCC2N3)cn1 (centres unmarked) [epibatidine]
Ki (α4β2 nicotinic receptors): 0.02 nM
inhibition at 100 µM (α7 nAChR; read-out: Percent inhibition of [125I]-α-BTX binding): 3%
Ki (α4 nAChR): 0.1 ± 0.03 nM
Threshold dose, calcium response (retinal ganglion cells): 1 nM
Ki (α3 nAChR): 0.7 ± 0.05 nM
Ki (α7 nicotinic receptors): 233 nM

CN1CCC[C@H]1c1cccnc1 [nicotine]
Protection against glutamate-induced excitotoxicity at higher levels ([1]; additional preliminary and published experiments ([47])): drop-off in protection at higher levels
Ki (α7 nAChR): 300000 ± 22000 nM
Concentration at which toxicity reported (adult porcine RGCs): 50 µM
Reduction of glutamate-induced excitotoxicity (adult porcine RGCs): significantly reduced
Ki (α4 nAChR): 20 ± 0.7 nM
Saturating dose, calcium response (retinal ganglion cells; [3]): 20 µM
Threshold dose, calcium response (retinal ganglion cells; [3]): 2000 nM
Ki (α3 nAChR): 220 ± 0.6 nM

α-Bungarotoxin [α-BTX]
IC50 (α7 nAChRs): 1.6 nM
Effect of antagonist on neuroprotection by PNU-282987 [1]: reduction in the neuroprotective effects
Ki (α7 nAChR; read-out: Mean Ki against [125I]-α-BTX): 170 ± 40 nM
Percent inhibition of [3H]-cytisine binding (α4 nAChR; 0.1 µM): 3% ± 3
IC50 (α3β4 receptors): > 3000 nM
